# From article PMC5429603, “Discovery and characterization of verinurad, a potent and specific inhibitor of URAT1 for the treatment of hyperuricemia and gout” (Scientific Reports, 2017)
# Key:
# human URAT1 h-F241Y = molecular target: T1, human URAT1 h-F241Y (Homo sapiens, UniProt Q96S37, F241Y); experiment: URAT1 activity assay, h-F241Y; type: cell-based
# T1 construct: expressed in transfected cells; host or cells: HEK-293T
# T1 sequence (Q96S37 1-553 F241Y): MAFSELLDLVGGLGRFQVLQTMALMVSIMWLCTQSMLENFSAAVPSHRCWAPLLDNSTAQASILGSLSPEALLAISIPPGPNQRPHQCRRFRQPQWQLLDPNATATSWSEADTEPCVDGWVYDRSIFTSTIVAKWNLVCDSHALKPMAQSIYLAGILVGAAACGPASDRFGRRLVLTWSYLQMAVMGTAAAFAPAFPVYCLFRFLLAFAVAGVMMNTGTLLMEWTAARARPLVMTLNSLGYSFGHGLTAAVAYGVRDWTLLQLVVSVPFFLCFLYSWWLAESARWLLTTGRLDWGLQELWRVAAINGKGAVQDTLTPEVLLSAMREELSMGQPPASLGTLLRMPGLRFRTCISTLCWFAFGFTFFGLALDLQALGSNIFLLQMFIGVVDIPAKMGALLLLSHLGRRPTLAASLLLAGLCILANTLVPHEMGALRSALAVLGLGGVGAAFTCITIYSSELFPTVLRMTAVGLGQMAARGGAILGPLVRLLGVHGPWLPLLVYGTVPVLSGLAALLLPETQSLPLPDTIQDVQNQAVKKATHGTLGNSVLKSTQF
# Source text: (§1) Human URAT1 (GenBank BC053348.1, Homo sapiens SLC22A12), rat URAT1 (NCBI NM_001034943.1, Rattus norvegicus Slc22a12) and human OAT4 (NCBI NM_018484.2, Homo sapiens SLC22A11) genes were purchased from Origene Technologies, Inc. and subcloned into pCMV6/neo using NotI. Where indicated, controls transfections used pCMV6/neo. Mutants were produced by site-directed mutagenesis using the QuikChange Lightning Multi Site-Directed Mutagenesis Kit (Agilent Technologies). […] Mutagenic primer sequences are provided in ref. [15] and mutagenic primer sequences for previously unreported mutants shown in Supplementary Table 1. All constructs used in this study were untagged. Human OAT1 was purchased from Fisher Scientific (catalog # MHS1010–7508183 in pSPORT6, NCBI NM_153276.2, Homo sapiens SLC22A6).
# HEK-293T cells were maintained in DMEM/high glucose/L-glutamine/HEPES supplemented with 1 mM sodium pyruvate (Life Technologies) and 10% FBS (PAA Laboratories) at 37 °C in 5% CO2. To express URAT1, OAT4 or OAT1, plasmids were reverse transfected into HEK-293T cells. DNA (10 µg) was mixed with 30 µl of DreamFect Gold (Boca Scientific) in 2 ml OptiMem (Life Technologies). After 20 minutes, 18 ml of media containing 2 × 10^7 cells in suspension was added and mixed, and 200 µl per well were plated onto white clear-bottomed poly-D-lysine coated 96-well plates (BD Biosciences). The cells were assayed the following day.
# URAT1 and OAT4 activity assays were performed in assay buffer consisting of 25 mM MES pH 5.5 (from a 1 M MES solution [Sigma] adjusted to pH 5.5 with sodium hydroxide), 125 mM sodium gluconate, 4.8 mM potassium gluconate, 1.2 mM monobasic potassium phosphate, 1.2 mM magnesium sulfate, 1.3 mM calcium gluconate and 5.6 mM glucose. URAT1 inhibitors were serially diluted into assay buffer and added to the cells for 5 minutes prior to addition of substrate. URAT1-expressing cells were incubated with 100 µM ^14C-uric acid for 10 minutes and OAT4-expressing cells were incubated with 20 µM carboxyfluorescein (Life Technologies, Inc.) for 5 minutes. Cells were then washed three times in 25 mM MES pH 5.5/125 mM sodium gluconate, and solubilized in Ultima Gold (Perkin Elmer) prior to liquid scintillation counting. Each treatment was measured in triplicate.
# rat URAT1 r-V25M = molecular target: T2, rat URAT1 r-V25M (Rattus norvegicus, UniProt Q3ZAV1, V25M); experiment: URAT1 activity assay, r-V25M; type: cell-based
# T2 construct: expressed in transfected cells; host or cells: HEK-293T
# T2 sequence (Q3ZAV1 whole entry V25M): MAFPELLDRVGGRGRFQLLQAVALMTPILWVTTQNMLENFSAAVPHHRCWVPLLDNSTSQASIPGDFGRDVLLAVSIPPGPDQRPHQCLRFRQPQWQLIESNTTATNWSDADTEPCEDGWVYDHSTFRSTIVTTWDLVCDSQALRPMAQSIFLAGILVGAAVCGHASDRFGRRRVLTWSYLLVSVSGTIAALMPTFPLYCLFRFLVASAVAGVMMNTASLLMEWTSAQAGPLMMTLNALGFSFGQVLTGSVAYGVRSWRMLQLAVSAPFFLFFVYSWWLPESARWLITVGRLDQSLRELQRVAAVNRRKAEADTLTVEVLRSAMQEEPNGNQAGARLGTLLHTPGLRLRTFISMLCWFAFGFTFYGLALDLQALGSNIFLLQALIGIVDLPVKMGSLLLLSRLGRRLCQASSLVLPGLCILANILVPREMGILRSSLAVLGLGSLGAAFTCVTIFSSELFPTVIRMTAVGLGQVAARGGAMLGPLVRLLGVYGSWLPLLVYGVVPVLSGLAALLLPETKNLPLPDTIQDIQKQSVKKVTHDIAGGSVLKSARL
# Source text: as §1
# HEK-293T cells were maintained in DMEM/high glucose/L-glutamine/HEPES supplemented with 1 mM sodium pyruvate (Life Technologies) and 10% FBS (PAA Laboratories) at 37 °C in 5% CO2. […]
# URAT1 and OAT4 activity assays were performed in assay buffer consisting of 25 mM MES pH 5.5 (from a 1 M MES solution [Sigma] adjusted to pH 5.5 with sodium hydroxide), 125 mM sodium gluconate, 4.8 mM potassium gluconate, 1.2 mM monobasic potassium phosphate, 1.2 mM magnesium sulfate, 1.3 mM calcium gluconate and 5.6 mM glucose. […] Each treatment was measured in triplicate.
smiles,measurement,setting,value
"CC(C)(Sc1ccncc1-c1ccc(C#N)c2ccccc12)C(=O)O [Verinurad, 2-((3-(4-cyanonaphthalen-1-yl)pyrindin-4-yl)thio)-2-methylpropanoic acid]",fold reduced affinity compared to human URAT1,human URAT1 h-F241Y; h-F241Y,5 fold
same,IC50,human URAT1 h-F241Y; h-F241Y binding site point mutant,0.12 µM
same,fold increase in affinity,rat URAT1 r-V25M; r-V25M vs rat URAT1,2.3 fold
same,IC50,"rat URAT1 r-V25M; r-V25M, TM1 point mutant, read-out: Verinurad affinity (IC50)",18 ± 3.2 µM
